“Also recorded” adds a separate entry of the source.
Key:
[1] = tested on: non-small cell lung cancer cell lines; experiment: Lung tumor cell viability assay, NSCLC cell lines; assay type: cell-based; conditions: 0.25-5.0 μM in DMSO; 72 h
Procedure: Lung Tumor Cell Viability Assay: H1819, H1299 and H827 lung tumor cells were seeded in 6-well plates at a density of 6×10^4, 4×10^4 and 5×10^4 cells/well, respectively. Prodrugs were dissolved in DMSO to make a stock concentration of 500 μM. The following day the cells were treated either with DMSO alone or with 0.25 μM, 0.5 μM, 1.0 μM, 2.5 μM and 5.0 μM of the compounds from Example 1, Example 16, and Example 22. Seventy two h after treatment with the drug the cells were subjected to cell viability assay using trypan blue. […] Cells were plated and after 24 hr were treated with the compound of Example 16 in DMSO. After 72 hr, cells were counted. Note that vertical axes are different for each plot.

[2] = tested on: STAT5; experiment: EGF-stimulated STAT5 phosphorylation in MDA-MB-468 cells; assay type: cell-based, human; conditions: 1.5 hr prodrug, then EGF 100 ng/mL 30 min
Procedure: (§1) Effect of prodrug on the phosphorylation of STAT3, STAT5 and Akt in response to Epidermal Growth Factor stimulation. MDA-MB-468 cells were prepared as above. Prodrugs were prepared as 10 mM stock solutions in DMSO and aliquots were added to the culture media to give the correct final concentrations. After 1.5 hr EGF was added at 100 ng/mL. After 30 minutes cells were collected and lysed and proteins were separated by PAGE and transferred to three PVDF filters as above. The first filter was blocked with 5% bovine serum albumin and probed for total and phosphoStat3 as above. The second filter was probed for phosphoSer473Akt and total Akt using appropriate antibodies and similar detection procedures to those used for STAT3. The third filter was probed for phosphoTyr699 Stat5 and total STAT5 using appropriate antibodies and similar detection procedures to those used for STAT3.

[3] = tested on: Akt; experiment: EGF-stimulated Akt Ser473 phosphorylation in MDA-MB-468 cells; assay type: cell-based, human; conditions: 1.5 hr prodrug, then EGF 100 ng/mL 30 min
Procedure: as §1

[4] = tested on: Focal Adhesion Kinase (FAK); experiment: Phosphorylation of Focal Adhesion Kinase Tyr861 in MDA-MB-468 cells; assay type: cell-based, human; conditions: 2 hr treatment
Description: Effect of Prodrug on the phosphorylation of Focal Adhesion Kinase (FAK) in MDA-MB-468 breast tumor cells. MDA-MB-468 cells express constitutive phosphorylation of Tyr861 of FAK (Laird, A. et al., Src Family Kinase Activity is Required For Signal Tranducer and Activator of Transcription 3 and Focal Adhesion Kinase Phosphorylation and Vascular Endothelial Growth Factor Signaling In Vivo and For Anchorage-Dependent and Independent Growth Of Human Tumor Cells, Mol Cancer Ther, 2, 461-9(2003). a unique substrate of Src upon recruitment via its SH2 domain (Calalb, M. B., et al, S. K. Focal adhesion kinase tyrosine-861 is a major site of phosphorylation by Src. Biochem Biophys Res Commun 1996, 228, 662-8 (1996.) To test for cross reactivity to the Src SH2 domain, MDA-MB-468 cell extracts were probed for phosphorylation of Tyr861 of FAK.

[5] = biological target: STAT3 (Homo sapiens, UniProt P40763); experiment: Inhibition of Stat3 tyrosine705 phosphorylation in MDA-MB-468 cells; assay type: cell-based; set-up: host or cells: MDA-MB-468 breast tumor cells; conditions: 2 h; for inhibition of Tyr705 phosphorylation of Stat3 (potency in words): prodrug in DMSO
Procedure: Inhibition of Stat3 tyrosine705 phosphorylation in MDA-MB-468 cells. MDA-MB-468 breast tumor cells (0.4×10^6) were plated onto 35 mm culture dishes and were allowed to grow overnight. Prodrugs were prepared as 10 mM stock solutions in DMSO and aliquots were added to the culture media to give the correct final concentrations. After 2 h the cells were washed with ice cold phosphate buffered saline. Washed cells were treated with lysis buffer (50 mM Hepes, pH 7.4, 150 mM NaCl, 1.5 mM MgCl2, 1 mM EGTA, 100 mM NaF, 10 mM sodium pyrophosphate, 10% glycerol, 1% Triton X-100, 1 mM PMSF, 1 mM Na3VO4, 10 μg/mL leupeptin and 10 μg/mL aprotinin). Cell-free detergent extracts were centrifuged at 15,000 rpm in a microcentriguge for 30 min at 4° C. and the protein concentrations of the supernatants determined. Aliquots containing 12 μg of protein were separated on 8% SDS-PAGE and were transferred to PVDF filters. The filters were blocked with 5% bovine serum albumin and were probed with pStat3^Y705 antibody followed by secondary antibody, whose signal was detected with an enhanced chemiluminescence kit (ECL, Amersham, Chicago, Ill.). Filters were stripped with stripping buffer (62.5 mM Tris, pH 6.8, 2% SDS, and 0.1 M 2-mercaptoethanol) at 50° C. for 30 min. Filters were then probed with total Stat3 antibody and visualized with chemiluminescence as above.

[6] = biological target: T1, STAT1 (Homo sapiens, UniProt P42224); experiment: IFNγ-stimulated STAT1 phosphorylation in MDA-MB-468 cells; assay type: cell-based; set-up: host or cells: MDA-MB-468 breast tumor cells; conditions: for inhibition of Stat1 phosphorylation compared with Stat3 phosphorylation: 1.5 hr prodrug, then interferonγ 25 ng/mL 30 min; for fold less potent at inhibiting STAT1 than STAT3: MDA-MB-468 cells
T1 sequence (P42224 1-750): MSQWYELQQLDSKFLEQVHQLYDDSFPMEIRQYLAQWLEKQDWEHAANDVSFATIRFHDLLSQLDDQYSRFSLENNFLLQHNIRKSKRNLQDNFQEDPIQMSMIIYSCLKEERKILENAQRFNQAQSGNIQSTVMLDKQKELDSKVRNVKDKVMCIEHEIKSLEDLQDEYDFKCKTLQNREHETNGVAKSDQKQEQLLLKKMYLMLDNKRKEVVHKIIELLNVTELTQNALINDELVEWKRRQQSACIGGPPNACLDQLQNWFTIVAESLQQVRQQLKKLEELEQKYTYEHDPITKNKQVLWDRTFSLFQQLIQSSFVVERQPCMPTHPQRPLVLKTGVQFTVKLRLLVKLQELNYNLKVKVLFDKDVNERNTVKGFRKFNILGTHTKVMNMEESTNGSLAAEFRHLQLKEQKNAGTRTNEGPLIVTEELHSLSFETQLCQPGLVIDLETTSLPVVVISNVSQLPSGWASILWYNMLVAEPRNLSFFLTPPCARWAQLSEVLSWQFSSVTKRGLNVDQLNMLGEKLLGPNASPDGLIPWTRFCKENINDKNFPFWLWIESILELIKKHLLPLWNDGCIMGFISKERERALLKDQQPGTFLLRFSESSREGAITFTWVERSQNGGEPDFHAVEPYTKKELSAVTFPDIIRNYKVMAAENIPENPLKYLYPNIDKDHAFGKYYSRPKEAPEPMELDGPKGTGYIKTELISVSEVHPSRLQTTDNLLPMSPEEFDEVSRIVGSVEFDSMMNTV
Procedure: Effect of Prodrug on the phosphorylation of STAT1 in MDA-MB-468 breast tumor cells. MDA-MB-468 cells were prepared as above. Prodrugs were prepared as 10 mM stock solutions in DMSO and aliquots were added to the culture media to give the correct final concentrations. After 1.5 hr interferonγ was added at 25 ng/mL. After 30 minutes cells were collected and lysed and proteins were separated by PAGE and transferred to PVDF filters as above. Filters were probed for phosphoTyr701 Stat 1 and total Stat1 using appropriate antibodies and similar detection procedures to those used for Stat3.

Sequence of STAT3 (P40763 whole entry): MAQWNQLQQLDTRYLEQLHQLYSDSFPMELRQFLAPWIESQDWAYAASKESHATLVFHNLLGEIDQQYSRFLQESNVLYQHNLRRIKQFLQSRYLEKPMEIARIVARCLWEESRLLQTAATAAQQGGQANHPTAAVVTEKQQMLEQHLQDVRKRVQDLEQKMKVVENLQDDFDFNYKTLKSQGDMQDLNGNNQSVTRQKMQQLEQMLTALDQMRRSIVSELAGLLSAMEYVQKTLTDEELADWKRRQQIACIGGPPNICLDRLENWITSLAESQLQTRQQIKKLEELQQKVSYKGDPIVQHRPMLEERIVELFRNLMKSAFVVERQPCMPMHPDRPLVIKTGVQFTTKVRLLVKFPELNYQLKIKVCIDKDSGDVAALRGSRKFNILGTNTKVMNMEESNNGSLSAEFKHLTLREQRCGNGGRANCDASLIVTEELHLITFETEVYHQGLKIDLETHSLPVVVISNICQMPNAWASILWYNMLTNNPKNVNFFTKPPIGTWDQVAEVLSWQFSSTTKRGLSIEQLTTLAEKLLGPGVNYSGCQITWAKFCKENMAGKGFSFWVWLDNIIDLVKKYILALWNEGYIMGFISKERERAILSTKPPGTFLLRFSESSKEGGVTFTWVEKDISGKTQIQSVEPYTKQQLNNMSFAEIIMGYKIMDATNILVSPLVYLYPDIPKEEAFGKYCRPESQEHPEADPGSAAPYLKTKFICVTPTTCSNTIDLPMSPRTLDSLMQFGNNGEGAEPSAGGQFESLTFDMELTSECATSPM

Row | concentration as low as which partial inhibition of STAT3 phosphorylation was seen [5] [nM] | concentration at which complete inhibition of STAT3 phosphorylation occurred [5] [nM] | inhibition of Tyr705 phosphorylation of Stat3 (potency in words) [5] | inhibition of Stat1 phosphorylation compared with Stat3 phosphorylation [6] | fold less potent at inhibiting STAT1 than STAT3 [6] | SMILES | growth / viability of NSCLC cell lines [1] | Stat5 phosphorylation after EGF [2] | Akt Ser473 phosphorylation after EGF [3] | phosphorylation of FAK Tyr861 [4]
1 | 10 | 500 | very potent inhibitors | less effective | about 10 fold | C/C(=C\C(=O)N[C@H]1CCc2cccc3c2N(C1=O)[C@H](C(=O)N[C@H](C)CCC(N)=O)C3)c1ccc(C(F)(F)P(=O)(OCOC(=O)C(C)(C)C)OCOC(=O)C(C)(C)C)cc1 [Example 1, (2E)-3-[4-[[bis[(2,2-dimethyl-1-oxopropoxy)methoxy]phosphinyl]difluoromethyl]phenyl]-but-2-enoyl-Haic-(R)-4-aminopentamide] | inhibition | no effect | no effect | no reduction; also recorded: do not inhibit
2 | 10 | 500 | very potent inhibitors | less effective | about 10 fold | CCCC[C@H](NC(=O)/C=C(\C)c1ccc(C(F)(F)P(=O)(OCOC(=O)C(C)(C)C)OCOC(=O)C(C)(C)C)cc1)C(=O)N1C[C@H]2CC2[C@H]1C(=O)N[C@@H](CCC(N)=O)[C@@H](C)OCc1ccccc1 (stereo partly drawn) [Example 16, (2E)-3-[4-[[bis[(2,2-dimethyl-1-oxopropoxy)methoxy]phosphinyl]difluoromethyl]phenyl]-but-2-enoyl-norleucinyl-(2S,3R,4S)-methanoprolinyl-(4S,5R)-4-amino-5-benzyloxyhexamide] | inhibition of growth | no effect | no effect | no reduction; also recorded: do not inhibit
